Literature values in patent publication US20230157586A1 (United States Government as Represented by the Department …, priority 2021, published 2023).
Substitutions are numbered along the chain they refer to.

Experiments:
albumin = albumin (Homo sapiens, UniProt P02768); settings: 37° C.; same for each subject
[1] = biological target: T1, corticosteroid binding globulin (CBG) (Homo sapiens, UniProt P08185); settings: 37° C.; same for each subject
T1 sequence (P08185 23-405): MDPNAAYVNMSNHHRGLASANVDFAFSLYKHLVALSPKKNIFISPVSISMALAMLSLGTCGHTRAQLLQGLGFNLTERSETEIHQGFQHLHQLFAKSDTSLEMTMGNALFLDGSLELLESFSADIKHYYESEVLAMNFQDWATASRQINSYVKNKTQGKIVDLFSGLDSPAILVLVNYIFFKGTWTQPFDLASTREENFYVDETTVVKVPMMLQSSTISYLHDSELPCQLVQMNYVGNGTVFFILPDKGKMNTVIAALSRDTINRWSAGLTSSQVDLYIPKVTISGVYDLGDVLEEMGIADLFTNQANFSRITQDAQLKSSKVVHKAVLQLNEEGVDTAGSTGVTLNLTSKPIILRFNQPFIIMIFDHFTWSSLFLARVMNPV

[2] = biological target: T2, mutant CBG protein (GLy237Val substitution, SERPINA6) (Homo sapiens, UniProt P08185, G259V); settings: previously reported; higher equilibrium dissociation constant KD
T2 sequence (P08185 23-405 G259V): T1 sequence (P08185 23-405) with G237V

albumin, sequence (P02768 25-609): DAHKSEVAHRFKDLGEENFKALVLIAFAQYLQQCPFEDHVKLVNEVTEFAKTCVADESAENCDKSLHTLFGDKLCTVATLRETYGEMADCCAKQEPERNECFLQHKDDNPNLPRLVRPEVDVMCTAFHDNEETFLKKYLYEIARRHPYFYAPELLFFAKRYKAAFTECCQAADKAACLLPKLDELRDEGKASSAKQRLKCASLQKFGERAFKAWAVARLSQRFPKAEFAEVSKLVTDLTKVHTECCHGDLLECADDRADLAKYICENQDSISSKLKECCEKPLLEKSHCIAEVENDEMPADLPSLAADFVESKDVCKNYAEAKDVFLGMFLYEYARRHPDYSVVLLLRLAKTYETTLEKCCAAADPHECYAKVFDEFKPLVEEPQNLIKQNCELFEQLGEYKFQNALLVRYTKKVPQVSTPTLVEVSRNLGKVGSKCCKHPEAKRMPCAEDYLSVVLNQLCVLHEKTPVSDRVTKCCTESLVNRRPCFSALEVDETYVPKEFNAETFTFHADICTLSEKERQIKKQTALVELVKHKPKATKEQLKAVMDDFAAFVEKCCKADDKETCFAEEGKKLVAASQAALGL

κ1^A association rate constant (on-rate), albumin (albumin): 8950 M/s
κ−1^A dissociation rate constant (off-rate), albumin (albumin): 2.2 s⁻¹
κ1^C association rate constant (on-rate), CBG [1]: 3.62e+07 M/s
κ−1^C dissociation rate constant (off-rate), CBG [1]: 0.88 s⁻¹
SMILES: C[C@]12CCC(=O)C=C1CC[C@@H]1[C@@H]2[C@@H](O)C[C@@]2(C)[C@H]1CC[C@]2(O)C(=O)CO [cortisol]
cortisol binding affinity of mutant CBG compared to wild type CBG protein [2]: markedly decreased cortisol binding affinity
